Laboratory results reported in PMC10501649, “A detoxification pathway initiated by a nuclear receptor TcHR96h in Tetranychus cinnabarinus (Boisduval)” (PLOS Genetics, 2023).
Where two headings read alike, the source gives them in different places.

Experiments:
[1] = molecular target: TcHR96h (nuclear hormone receptor HR96h); assay: microscale thermophoresis (MST), supported by DARTs; R448A mutation reduces affinity […]; format: binding, Tetranychus cinnabarinus
[2] = molecular target: TcHR96h (nuclear hormone receptor HR96h); assay: as above; format: binding, Tetranychus cinnabarinus; remark: listed apart in the source

Kd [1]	Compound	Kd [2]
138 µM	CC(C)(C)c1ccc(C(C#N)C(=O)c2ccccc2C(F)(F)F)cc1 (centres unmarked) [AB-1]	
	COCCOC(=O)C(C#N)(C(=O)c1ccccc1C(F)(F)F)c1ccc(C(C)(C)C)cc1 (centres unmarked) [cyflumetofen]	189 µM
